“And” between values parts separate entries of the source, which are not always exact repeats. Identical values can stand only once.
Experiments:
KPC PDAC tumors = assay: Picrosirius red staining of KPC tumors (Fig. 1g); type: in vivo, mouse; conditions: KPC tumour bearing mice, Gem 100 mg/kg twice weekly i.p. for 15 cycles, individual animals
Source text: Fig. 1 Characterization of LOX family in PDAC. a,b, Kaplan–Meier curves for 5-year overall survival for lysyl oxidase family scores in the APGI/ICGC (low, n = 90 patients; high, n = 89 patients) (a) and TCGA (low, n = 57 patients; high, n = 58 patients) (b) PDAC datasets. Lines represent upper and lower tertiles. The lysyl oxidase family expression score is weighted by the Cox proportional hazards model coefficients for each family member. P values determined by log-rank (Mantel–Cox) test. c, Representative images of picrosirius red stained tumor cores from APGI/ICGC tumor microarrays. […] P values determined by log-rank (Mantel–Cox) test. e, Human LOX and LOXL2 plasma concentrations in healthy (n = 30 patient samples) and patients with PDAC (n = 12 patient samples) determined by SiMoA. […] Scale bars, 100 μm. g, Quantitative comparison of picrosirius red staining in tumors from KPC tumor-bearing mice treated with either saline vehicle or gemcitabine (n = 10 biologically independent animals per group). […] Two-tailed P values determined by unpaired, nonparametric t-tests with a Mann–Whitney U-test correction (comparison between two groups). […]

[1] = Tolerability in mouse PDAC models; type: in vivo; conditions: >6 months
Source text: In our KPC mouse and human PDX in vivo models of PDAC, PXS-5505 reduces collagen deposition and tumor stiffness and improves perfusion of agents into the primary tumor site. […] These in vivo findings match the in vitro organotypic data showing reductions in local invasion. Furthermore, addition of PXS-5505 to gemcitabine treatment extends median survival in the KPC model by approximately 45% and decreases metastatic deposits within the liver compared to gemcitabine alone.

[2] = tested on: Lysyl oxidase family activity in aorta; assay: Target engagement: lysyl oxidase family activity in freshly excised aorta, fluorometric activity assay (Fig. 2h); type: in vivo, rat; parameters: Lysyl oxidase family activity in freshly excised aorta: unit not given here; conditions: for Lysyl oxidase family activity in freshly excised aorta: single 30 mg/kg oral, individual samples, 30 mg/kg
Procedure: Data are presented as mean ± s.d. Two-tailed P value determined by unpaired, nonparametric t-test with a Mann–Whitney U-test correction (comparison to PBS control). h, Lysyl oxidase family activity measured in freshly excised aorta determined by fluorometric activity assay n = 19 (PBS), 5 (4–120 h) biological independent samples. Data presented as mean ± s.d. Two-tailed P value determined by unpaired, nonparametric t-test with a Mann–Whitney U-test correction (comparison to PBS control).
To confirm that PXS-5505 inhibits lysyl oxidase family enzymatic activity in tissues, target engagement experiments were performed following a single oral dose (30 mg kg^−1) in rats. […] Lysyl oxidase family activity was measured in two tissues; aorta (core tissue) and ear (peripheral tissue).

[3] = molecular target: all lysyl oxidase family members; assay: Lysyl oxidase enzymatic activity, fluorescence-based assay, IC50 range over the family; type: biochemical, human; conditions: range over the five family members; read-out: IC50 values against all lysyl oxidase family members
Procedure: In characterizing PXS-5505, the half-maximum inhibitory concentration (IC50) values for each of the lysyl oxidase family members were determined by measuring enzymatic activity using a fluorescence-based assay.

[4] = tested on: lysyl oxidase family activity in conditioned medium from KPC CAFs; assay: Amplex red enzymatic activity assay on cell-derived conditioned medium (Extended Data Fig. 3g); type: biochemical, mouse; parameters: Lysyl oxidase family activity in conditioned media: unit not given here; conditions: for Lysyl oxidase family activity in conditioned media: KPC CAF CM, replicates
Procedure: (§1) Cell-derived conditioned medium was prepared from KPC CAFs and CCs grown in phenol red-free DMEM with 0.1% FBS and 10 μM CuSO4 for 24 h. At collection, size filtration >10 kDa for 40× concentration and buffer exchange (1.2 M urea and 50 mM sodium borate buffer, pH 8.2) were performed and subsequently used for the Amplex red assay as previously described[59] using putrescine as a substrate. Three biological repeats were performed.
(§2) Data presented as mean values +/− SD. f. […] Data presented as mean values +/− SD. […] Data presented as mean values +/− SD. […] Data presented as mean values +/− SD. Ordinary one-way ANOVA for multiple comparison test performed. Source data

[5] = tested on: lysyl oxidase family activity in conditioned medium from KPC cancer cells; assay: as above; type: biochemical, mouse; parameters: Lysyl oxidase family activity in conditioned media: unit not given here; conditions: for Lysyl oxidase family activity in conditioned media: KPC cancer cells CM, replicates
Procedure: as §1, §2

Nc1ccn([C@@H]2O[C@H](CO)[C@@H](O)C2(F)F)c(=O)n1 [Gem, gemcitabine]
picrosirius red staining in tumours (KPC PDAC tumors): 26.8678 and 24.1241 and 47.4949 and 47.2536 and 61.2999 and 20.5678 and 34.5947 and 25.1726 and 42.1276 and 82.533

Cl.Cl.NC/C=C(\F)CS(=O)(=O)c1cccc2cccnc12.O [PXS-5505, (Z)-3-fluoro-4-(quinolin-8-ylsulfonyl)but-2-en-1-amine dihydrochloride monohydrate]
adverse side effects in mouse PDAC models [1]: no adverse side effects
recovery of lysyl oxidase family activity in the aorta, of initial activity ([2]; rats, single 30 mg kg−1 oral, 24 h after dosing): approximately 50%
Lysyl oxidase family activity in freshly excised aorta ([2]; rats, 4 h): 15.4162 and 30.1157 and 25.1081 and 16.4125 and 13.2925
Lysyl oxidase family activity in freshly excised aorta ([2]; rats, 24 h): 54.6033 and 26.1568 and 51.6931 and 36.2595 and 23.1592
Lysyl oxidase family activity in freshly excised aorta ([2]; rats, 48 h): 62.6086 and 39.9999 and 48.7392 and 69.3553 and 56.8756
Lysyl oxidase family activity in freshly excised aorta ([2]; rats, 120 h): 94.5071 and 44.5094 and 104.61 and 70.2729 and 55.285
calculated block of all lysyl oxidase family activity ([2]; single daily oral dose of 30 mg kg−1, over a 24-h period): > 70%
IC50 [3]: 0.2 to 5 µM
Lysyl oxidase family activity in conditioned media ([4]; 1.5 nM PXS): 95.9609 and 94.079 and 81.6749
Lysyl oxidase family activity in conditioned media ([4]; 3 nM PXS): 109.447 and 108.981 and 81.5719
Lysyl oxidase family activity in conditioned media ([4]; 15 nM PXS): 100.129 and 99.9799 and 74.1019
Lysyl oxidase family activity in conditioned media ([4]; 30 nM PXS): 107.999 and 96.3316 and 79.5133
Lysyl oxidase family activity in conditioned media ([4]; 150 nM PXS): 79.0426 and 71.3415 and 64.7518
Lysyl oxidase family activity in conditioned media ([4]; 300 nM PXS): 88.3802 and 67.0866 and 51.1694
Lysyl oxidase family activity in conditioned media ([4]; 1.5 uM PXS): 45.307 and 27.142 and 15.754
Lysyl oxidase family activity in conditioned media ([4]; 3 uM PXS): 31.4691 and 22.608 and 3.789
Lysyl oxidase family activity in conditioned media ([4]; 15 uM PXS): -3.917 and 9.401 and -5.483
Lysyl oxidase family activity in conditioned media ([4]; 30 uM PXS): -4.091 and 9.102 and -4.018
inhibition of lysyl oxidase family activity in conditioned medium ([4]; KPC CAFs): inhibition of lysyl oxidase family activity
inhibition of lysyl oxidase family activity in conditioned medium ([5]; KPC CCs): inhibition of lysyl oxidase family activity
Lysyl oxidase family activity in conditioned media ([5]; 1.5 nM PXS): 52.7404 and 147.39 and 87.9635
Lysyl oxidase family activity in conditioned media ([5]; 3 nM PXS): 57.9047 and 143.925 and 88.9618
Lysyl oxidase family activity in conditioned media ([5]; 15 nM PXS): 58.7665 and 150.554 and 90.679
Lysyl oxidase family activity in conditioned media ([5]; 30 nM PXS): 57.8418 and 141.264 and 86.9464
Lysyl oxidase family activity in conditioned media ([5]; 150 nM PXS): 55.9673 and 128.167 and 75.6773
Lysyl oxidase family activity in conditioned media ([5]; 300 nM PXS): 56.4831 and 97.2065 and 57.86
Lysyl oxidase family activity in conditioned media ([5]; 1.5 uM PXS): 35.0772 and 43.4748 and 18.796
Lysyl oxidase family activity in conditioned media ([5]; 3 uM PXS): 22.4023 and 21.6286 and 3.933
Lysyl oxidase family activity in conditioned media ([5]; 15 uM PXS): -2.759 and 11.8534 and -9.095
Lysyl oxidase family activity in conditioned media ([5]; 30 uM PXS): -2.098 and 9.262 and -6.1538

Source: article PMC10518255, “A first-in-class pan-lysyl oxidase inhibitor impairs stromal remodeling and enhances gemcitabine response and survival in pancreatic cancer” (Nature Cancer, 2023)
